For assay [1], the target named is T1, SARS‐CoV‐2 Mpro (Severe acute respiratory syndrome coronavirus 2, UniProt P0DTD1). The conditions noted are these: non‐covalent inhibitors; cited from earlier work.
Assay [2] has as its system virus‐infected VeroE6 cells. The conditions noted are these: cytopathic effect (CPE) inhibition; cited from earlier work. A general note: Cytopathic effects are the visible damage that an infection or toxin causes in cultured cells.
For assay [3], the system named is virus‐infected VeroE6 cells. The conditions noted are these: plaque reduction; cited from earlier work.
Assay [4] has as its target T1, SARS‐CoV‐2 Mpro. Description: FRET peptide substrate enzymatic assay. The conditions noted are these: compound 20 µM; for remaining activity at 20 µM: enzyme 75 nM, substrate 25 µM, read-out: Residual activity (%). It is filed as biochemical. As for the experimental part: The three compounds identified as binders in the MST assay were tested for their inhibitory properties against SARS‐CoV‐2 Mpro at a 20 µM concentration (see Section 4 for details).
Inhibitory activities of the compounds against SARS‐CoV‐2 Mpro were determined as described previously by cleavage of a fluorescence resonance energy transfer (FRET) peptide substrate (Dabcyl‐[…]‐Edans), purchased from Genescript (New Jersey, USA).
Fluorescence measurements were carried out in white flat‐bottom 96‐well plates (Greiner Bio‐One, Kremsmünster, Upper Austria) using a Tecan Spark 10M plate reader (Tecan Group Ltd., Männedorf, Switzerland). Each well contained a final volume of 200 µL, consisting of 180 µL assay buffer (20 mM TRIS‐HCl pH 7.5, 20 mM NaCl, 0.1 mM EDTA, 1 mM DTT), 5 µL enzyme solution (final concentration 75 nM), 10 µL inhibitor in DMSO (final concentration 20 µM) or pure DMSO as a negative control, and 5 µL substrate solution in DMSO (final concentration 25 µM). The reaction was monitored for 10 min at 25°C, with fluorescence readings taken at 30‐s intervals. The substrate was excited at 335 nm, and fluorescence emission was recorded at 493 nm. The remaining enzymatic activity was determined by comparing the substrate hydrolysis rate in reaction mixtures containing the inhibitors to that of the DMSO control. Only the first 5 min of the fluorescence curves (Supporting Information S1: Figure S3) were used for the calculation to obtain the linear part.

Assay [5] addresses T1, SARS‐CoV‐2 Mpro. Description: Microscale thermophoresis (MST) binding check and binding affinity. The conditions noted are these: for RA (Response Amplitude): MST binding affinity experiment, RA ≥ 1.5 indicative of binding; for Kd: MST, labeled Mpro 35 nM, 16 1:1 serial dilutions, two independent experiments, read-out: K d ± K d confidence. For orientation: Microscale thermophoresis detects binding through changes in fluorescence in a small temperature gradient.

In the next assay the test system is infected cells. The conditions noted are these: cited from earlier work.
Assay [6] deals with SARS‐CoV‐2 replication in Vero E6 cells. The conditions noted are these: cited from earlier work.
The next assay has as its system SARS-CoV-1. The conditions noted are these: cited from earlier work.

Like-named read-outs stand apart in the source and are kept apart here.

As to `O=C(c1c[nH]c(=O)[nH]c1=O)N1CCN(c2ccc(Cl)c(Cl)c2)CC1` [compound 23], on SARS‐CoV‐2 Mpro [1], the IC50 (as a rule, the point on the concentration scale where inhibition reaches its midpoint) was 5.1 ± 0.63 µM.

For the compound `O=C(Cn1nnc2ccccc21)N(Cc1cccc(Cl)c1)c1ccc(-c2c[nH]cn2)cc1` [compound 47], the EC50 (as a rule, the concentration that produces a half-maximal response) in assay [2] is 0.5 µM; in assay [3], 0.56 µM.

Take `Cc1ccc(C(=O)NCCCNC(=O)c2ccccn2)cc1C` [compound 7]: at SARS‐CoV‐2 Mpro [4], the “Effect on enzyme activity (in words)” value is listed as “no effect on the catalytic activity” and the remaining activity at 20 µM was 105%. For the same compound, at SARS‐CoV‐2 Mpro [5], the “RA (Response Amplitude)” value is 3.4 and the Kd came to 2.8 ± 0.9 µM.

Take `CCOc1cccc(-c2nn3c(-c4cccnc4)nnc3s2)c1` [compound 8]: at SARS‐CoV‐2 Mpro [4], the “Effect on enzyme activity (in words)” value was “no effect on the catalytic activity” and the remaining activity at 20 µM worked out at 101%. Moreover, at SARS‐CoV‐2 Mpro [5], the “RA (Response Amplitude)” value is listed as 4.7 and the Kd worked out at 23.9 ± 7.4 µM.

As to `Cc1cc2ncn(S(=O)(=O)c3ccc(S(N)(=O)=O)cc3)c2cc1C` [compound 9], on SARS‐CoV‐2 Mpro [4], the “Effect on enzyme activity (in words)” value is on record as “no effect on the catalytic activity” and the remaining activity at 20 µM amounted to 106%. For the same compound, at SARS‐CoV‐2 Mpro [5], the “RA (Response Amplitude)” value worked out at 2.7 and the Kd was 39 ± 23.4 µM.

`O=C(NCc1cccs1)[C@@H]1CN(C(=O)c2cccnc2)CCN1c1ccc(Cl)c(Cl)c1` [compound 51]: the IC50 at SARS‐CoV‐2 Mpro [1] is approximately 0.4 µM. The EC50 in the assay on infected cells was approximately 1.1 µM.

Turning to `O=C(NC1CCNCC1)c1n[nH]cc1NC(=O)c1c(Cl)cccc1Cl` [AT7519, N‐(4‐piperidinyl)‐4‐(2,6‐dichlorobenzoylamino)‐1H‐ Pyrazole‐3‐Carboxamide], in assay [6], the concentration for a half-maximal effect (EC50) was 25.2 µM.

For the compound `CCC(C)(C)NC(=O)[C@@H](c1ccn(C)c1)N(C(=O)Cn1nnc2ccccc21)c1ccc(NC(C)=O)cc1` [compound 42], the IC50 in the assay with SARS-CoV-1 is 6.2 µM.

Values taken from paper PMC12701685, “Support Vector Machine Identification of Small Molecule Binders to an Understudied Allosteric Site of SARS‐CoV‐2 Mpro for Next‐Generation PROTAC‐Based Therapeutics” (Archiv Der Pharmazie, 2025).
